Reference: ChEMBL document CHEMBL3627649, “Identification of Substituted Naphthotriazolediones as Novel Tryptophan 2,3-Dioxygenase (TDO) Inhibitors through Structure-Based Virtual Screening” (J Med Chem, 2015)

What was measured:
[1] = target: C-X-C chemokine receptor type 4 (Homo sapiens, UniProt P61073); test: Displacement of 125I-SDF-1 from human CXCR4 expressed in HEK293 cells incubated for 1.5 hrs by Topcount analysis; format: cell-based
[2] = target: Tryptophan 2,3-dioxygenase (Homo sapiens, UniProt P48775); test: Inhibition of recombinant human TDO expressed in Escherichia coli incubated for 1 hr measured by absorbance assay
Tryptophan 2,3-dioxygenase, sequence (P48775 whole entry): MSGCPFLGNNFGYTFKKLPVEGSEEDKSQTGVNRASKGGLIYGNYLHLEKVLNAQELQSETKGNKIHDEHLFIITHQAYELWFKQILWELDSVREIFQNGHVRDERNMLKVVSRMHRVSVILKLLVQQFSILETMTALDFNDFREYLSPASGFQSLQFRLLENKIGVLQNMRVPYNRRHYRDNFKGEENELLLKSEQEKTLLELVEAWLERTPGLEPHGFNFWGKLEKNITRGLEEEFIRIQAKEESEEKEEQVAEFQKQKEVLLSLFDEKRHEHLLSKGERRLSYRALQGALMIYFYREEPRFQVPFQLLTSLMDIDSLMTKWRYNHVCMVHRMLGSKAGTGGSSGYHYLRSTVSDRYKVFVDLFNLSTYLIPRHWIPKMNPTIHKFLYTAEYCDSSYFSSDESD

Mu-type opioid receptor = Mu-type opioid receptor (Homo sapiens, UniProt P35372); test: Inhibition of recombinant mu-opioid receptor (unknown origin) expressed in CHO cells for 60 mins; format: cell-based
Mu-type opioid receptor, sequence (P35372 whole entry): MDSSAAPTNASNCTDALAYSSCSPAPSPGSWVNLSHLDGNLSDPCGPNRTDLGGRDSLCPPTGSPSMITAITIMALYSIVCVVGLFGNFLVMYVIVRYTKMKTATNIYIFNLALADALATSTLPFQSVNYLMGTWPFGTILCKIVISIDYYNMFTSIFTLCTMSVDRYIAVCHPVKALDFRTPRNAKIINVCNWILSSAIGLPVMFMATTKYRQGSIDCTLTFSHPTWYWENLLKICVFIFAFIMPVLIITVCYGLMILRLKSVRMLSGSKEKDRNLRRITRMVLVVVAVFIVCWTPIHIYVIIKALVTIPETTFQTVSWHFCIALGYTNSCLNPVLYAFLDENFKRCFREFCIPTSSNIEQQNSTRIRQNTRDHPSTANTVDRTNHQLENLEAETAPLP

[3] = Inhibition of human muscle mitochondrial complex 1 by spectrophotometric assay
Aurora kinase A = target: T1, Aurora kinase A (Homo sapiens, UniProt O14965); test: Inhibition of Aurora A (unknown origin)
T1 sequence (O14965 whole entry): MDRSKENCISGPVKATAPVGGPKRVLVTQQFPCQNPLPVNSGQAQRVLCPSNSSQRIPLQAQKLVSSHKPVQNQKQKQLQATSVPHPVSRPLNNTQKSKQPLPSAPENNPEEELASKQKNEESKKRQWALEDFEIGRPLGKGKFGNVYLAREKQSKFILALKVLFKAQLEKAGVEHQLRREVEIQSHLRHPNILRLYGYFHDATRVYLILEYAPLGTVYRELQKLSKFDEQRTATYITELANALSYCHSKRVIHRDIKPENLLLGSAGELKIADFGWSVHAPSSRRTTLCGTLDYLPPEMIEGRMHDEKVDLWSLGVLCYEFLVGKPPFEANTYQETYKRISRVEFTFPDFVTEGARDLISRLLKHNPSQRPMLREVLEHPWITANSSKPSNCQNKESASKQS

[4] = Inhibition of Dengue virus type 2 NS2B-NS3 protease
[5] = target: Epidermal growth factor receptor (Homo sapiens, UniProt P00533); test: Inhibition of human EGFR incubated for 2 hrs by Kinase-Glo luminescent kinase assay
Epidermal growth factor receptor, sequence (P00533 whole entry): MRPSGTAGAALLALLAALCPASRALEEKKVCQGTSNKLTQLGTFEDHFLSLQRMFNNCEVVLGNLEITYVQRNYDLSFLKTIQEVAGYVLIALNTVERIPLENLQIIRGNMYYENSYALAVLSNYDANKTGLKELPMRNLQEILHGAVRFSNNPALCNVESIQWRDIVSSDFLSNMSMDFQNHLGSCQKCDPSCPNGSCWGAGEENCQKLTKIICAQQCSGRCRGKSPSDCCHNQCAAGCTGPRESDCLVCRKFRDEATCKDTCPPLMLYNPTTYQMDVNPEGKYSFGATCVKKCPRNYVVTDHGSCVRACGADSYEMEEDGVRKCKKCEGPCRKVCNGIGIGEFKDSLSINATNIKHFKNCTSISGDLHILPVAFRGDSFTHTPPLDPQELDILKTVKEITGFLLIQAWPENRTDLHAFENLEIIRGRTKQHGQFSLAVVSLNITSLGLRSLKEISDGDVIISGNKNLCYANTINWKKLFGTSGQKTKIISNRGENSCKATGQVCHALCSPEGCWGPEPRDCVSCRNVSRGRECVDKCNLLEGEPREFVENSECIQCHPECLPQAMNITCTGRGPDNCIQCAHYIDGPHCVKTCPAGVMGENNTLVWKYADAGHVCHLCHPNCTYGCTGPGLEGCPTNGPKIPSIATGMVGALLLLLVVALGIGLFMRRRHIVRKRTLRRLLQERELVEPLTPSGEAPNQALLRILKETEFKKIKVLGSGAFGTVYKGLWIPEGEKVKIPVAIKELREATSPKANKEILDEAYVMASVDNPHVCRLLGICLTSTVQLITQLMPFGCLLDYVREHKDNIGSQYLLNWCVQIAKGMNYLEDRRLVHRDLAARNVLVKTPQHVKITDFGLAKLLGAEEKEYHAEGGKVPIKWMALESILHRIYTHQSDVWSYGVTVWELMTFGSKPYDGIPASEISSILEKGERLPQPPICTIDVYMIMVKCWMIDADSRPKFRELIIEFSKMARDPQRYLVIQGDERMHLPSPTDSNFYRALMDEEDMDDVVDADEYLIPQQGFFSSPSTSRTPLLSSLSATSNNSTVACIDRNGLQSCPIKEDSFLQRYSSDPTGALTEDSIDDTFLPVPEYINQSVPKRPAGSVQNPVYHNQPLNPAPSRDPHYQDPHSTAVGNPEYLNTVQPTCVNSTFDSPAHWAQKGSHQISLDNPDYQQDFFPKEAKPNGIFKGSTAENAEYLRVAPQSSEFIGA

[6] = target: T2, Receptor-type tyrosine-protein kinase FLT3 (Homo sapiens, UniProt P36888); test: Inhibition of FLT3 (unknown origin) expressed in Sf9 insect cells for 4 hrs by Kinase-Glo assay
T2 sequence (P36888 whole entry): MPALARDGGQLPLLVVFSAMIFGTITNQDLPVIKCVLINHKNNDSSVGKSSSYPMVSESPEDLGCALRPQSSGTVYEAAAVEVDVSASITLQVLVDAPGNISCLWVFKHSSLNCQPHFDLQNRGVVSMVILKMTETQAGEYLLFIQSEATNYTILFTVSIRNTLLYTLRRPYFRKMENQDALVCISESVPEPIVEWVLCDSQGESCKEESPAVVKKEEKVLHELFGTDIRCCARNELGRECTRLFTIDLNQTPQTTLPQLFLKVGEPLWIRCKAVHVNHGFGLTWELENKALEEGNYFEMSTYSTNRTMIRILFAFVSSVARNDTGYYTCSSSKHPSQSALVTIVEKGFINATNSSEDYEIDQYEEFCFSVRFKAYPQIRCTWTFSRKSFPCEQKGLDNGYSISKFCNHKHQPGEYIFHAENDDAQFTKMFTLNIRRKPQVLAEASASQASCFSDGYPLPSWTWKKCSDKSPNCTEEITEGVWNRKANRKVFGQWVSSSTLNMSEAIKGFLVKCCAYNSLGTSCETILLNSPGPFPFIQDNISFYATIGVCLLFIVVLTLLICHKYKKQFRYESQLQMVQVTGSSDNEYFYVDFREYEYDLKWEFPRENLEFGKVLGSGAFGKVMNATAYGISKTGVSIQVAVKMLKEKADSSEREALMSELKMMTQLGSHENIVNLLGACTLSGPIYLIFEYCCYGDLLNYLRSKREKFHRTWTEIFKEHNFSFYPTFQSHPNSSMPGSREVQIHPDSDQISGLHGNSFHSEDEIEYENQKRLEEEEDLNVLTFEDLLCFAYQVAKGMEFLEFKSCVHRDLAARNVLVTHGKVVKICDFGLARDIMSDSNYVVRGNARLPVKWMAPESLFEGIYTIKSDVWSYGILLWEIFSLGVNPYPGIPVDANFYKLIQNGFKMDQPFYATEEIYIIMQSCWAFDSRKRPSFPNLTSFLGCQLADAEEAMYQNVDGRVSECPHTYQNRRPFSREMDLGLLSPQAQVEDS

Catalase = target: T3, Catalase (Homo sapiens, UniProt P04040); test: Inhibition of catalase (unknown origin)
T3 sequence (P04040 whole entry): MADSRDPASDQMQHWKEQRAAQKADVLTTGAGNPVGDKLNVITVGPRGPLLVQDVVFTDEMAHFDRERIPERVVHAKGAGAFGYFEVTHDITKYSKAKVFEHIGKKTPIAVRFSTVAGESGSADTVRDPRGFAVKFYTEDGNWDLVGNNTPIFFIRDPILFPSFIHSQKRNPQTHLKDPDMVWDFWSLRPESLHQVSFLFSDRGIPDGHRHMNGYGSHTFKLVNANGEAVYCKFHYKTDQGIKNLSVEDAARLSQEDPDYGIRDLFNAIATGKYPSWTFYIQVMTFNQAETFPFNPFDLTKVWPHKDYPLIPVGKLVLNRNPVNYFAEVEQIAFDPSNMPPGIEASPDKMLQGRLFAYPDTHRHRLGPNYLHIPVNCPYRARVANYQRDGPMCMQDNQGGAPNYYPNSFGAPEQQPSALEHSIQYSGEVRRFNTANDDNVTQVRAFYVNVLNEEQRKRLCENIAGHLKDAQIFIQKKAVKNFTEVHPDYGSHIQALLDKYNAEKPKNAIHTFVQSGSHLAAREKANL

[7] = target: Indoleamine 2,3-dioxygenase 1 (Homo sapiens, UniProt P14902); test: Inhibition of recombinant human IDO expressed in Escherichia coli incubated for 1 hr measured by fluorescence assay
Indoleamine 2,3-dioxygenase 1, sequence (P14902 whole entry): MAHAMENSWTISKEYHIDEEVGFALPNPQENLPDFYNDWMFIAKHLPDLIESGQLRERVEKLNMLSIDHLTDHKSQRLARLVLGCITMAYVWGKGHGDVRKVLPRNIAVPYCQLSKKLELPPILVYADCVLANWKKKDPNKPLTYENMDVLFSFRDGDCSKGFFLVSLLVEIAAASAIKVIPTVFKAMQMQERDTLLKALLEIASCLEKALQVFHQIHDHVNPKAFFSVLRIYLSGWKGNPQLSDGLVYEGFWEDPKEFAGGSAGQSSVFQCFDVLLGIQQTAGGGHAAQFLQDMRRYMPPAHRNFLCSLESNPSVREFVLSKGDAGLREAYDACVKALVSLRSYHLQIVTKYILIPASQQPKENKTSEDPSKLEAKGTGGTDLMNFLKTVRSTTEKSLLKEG

[8] = target: T4, Tyrosine-protein phosphatase non-receptor type 1 (Homo sapiens, UniProt P18031); test: Inhibition of human PTP1B preincubated with protein for 15 mins followed by DiFMUP addition for 1 hr measured by fluorescence analysis
T4 sequence (P18031 whole entry): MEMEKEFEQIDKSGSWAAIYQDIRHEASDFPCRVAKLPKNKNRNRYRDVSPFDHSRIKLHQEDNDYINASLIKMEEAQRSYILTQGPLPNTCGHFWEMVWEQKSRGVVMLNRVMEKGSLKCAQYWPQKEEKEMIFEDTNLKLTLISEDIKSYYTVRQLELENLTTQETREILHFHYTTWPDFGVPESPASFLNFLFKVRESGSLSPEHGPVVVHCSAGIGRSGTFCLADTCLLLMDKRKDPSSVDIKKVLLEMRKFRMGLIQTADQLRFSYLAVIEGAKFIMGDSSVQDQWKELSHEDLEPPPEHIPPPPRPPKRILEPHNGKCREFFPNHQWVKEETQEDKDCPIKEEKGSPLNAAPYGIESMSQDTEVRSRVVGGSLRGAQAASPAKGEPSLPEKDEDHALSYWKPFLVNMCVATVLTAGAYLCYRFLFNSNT

[9] = Redox cycling activity of the compound assessed as H2O2 production incubated for 15 mins by HRP-PR assay in presence of 0.8 mM DTT

C-X-C chemokine receptor type 4, sequence (P61073 whole entry): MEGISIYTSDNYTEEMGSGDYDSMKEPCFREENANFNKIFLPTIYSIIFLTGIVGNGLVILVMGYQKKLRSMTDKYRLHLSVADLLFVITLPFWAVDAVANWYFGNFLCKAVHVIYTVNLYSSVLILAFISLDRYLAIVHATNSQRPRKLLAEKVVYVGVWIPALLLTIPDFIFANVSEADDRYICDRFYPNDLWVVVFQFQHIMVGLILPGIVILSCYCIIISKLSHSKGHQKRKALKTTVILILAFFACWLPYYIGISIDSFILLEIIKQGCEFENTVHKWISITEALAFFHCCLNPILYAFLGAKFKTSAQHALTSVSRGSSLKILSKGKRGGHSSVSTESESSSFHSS

Compound	IC50 [2] [µM]	IC50 [7] [µM]	further results
Cc1ccccc1Cn1nnc2c1C(=O)c1ccccc1C2=O	0.561	0.809	IC50 [1]: > 10 µM; IC50 (Mu-type opioid receptor): > 10 µM; IC50 [3]: > 10 µM; IC50 (Aurora kinase A): > 10 µM; IC50 [4]: > 10 µM; IC50 [5]: > 10 µM; IC50 [6]: > 10 µM; IC50 (Catalase): > 10 µM
Cc1cccc(Cn2nnc3c2C(=O)c2ccccc2C3=O)c1	1.75	4.61	–
O=C1c2ccccc2C(=O)c2c1nnn2Cc1cccc(Cl)c1	0.711	0.767	IC50 [8]: > 10 µM; AC50 [9]: > 50 µM
O=C1c2ccccc2C(=O)c2c1nnn2Cc1ccc(F)cc1	7.38	2.59	–
Cc1ccc(Cn2nnc3c2C(=O)c2ccccc2C3=O)cc1	1.09	1.77	–
O=C1c2ccccc2C(=O)c2c1nnn2Cc1cccc(Br)c1	0.768	3.16	–
O=C1c2ccccc2C(=O)c2c1nnn2Cc1ccc(Br)cc1	1.59	> 10	–
O=C1c2ccccc2C(=O)c2c1nnn2Cc1ccc(Cl)cc1	6.46	> 10	–
O=C(O)c1cccc(Cn2nnc3c2C(=O)c2ccccc2C3=O)c1	0.167	1.24	–
O=C(O)c1ccc(Cn2nnc3c2C(=O)c2ccccc2C3=O)cc1	0.312	2.32	–
CCN(CC)C(=O)c1cccc(Cn2nnc3c2C(=O)c2ccccc2C3=O)c1	0.09	0.977	–
CCN(CC)C(=O)c1ccc(Cn2nnc3c2C(=O)c2ccccc2C3=O)cc1	0.181	1.93	–
CC(=O)N1CCN(C(=O)c2cccc(Cn3nnc4c3C(=O)c3ccccc3C4=O)c2)CC1	0.059	0.602	–
O=C1c2ccccc2C(=O)c2c1nnn2Cc1cccc(C(=O)N2CCOCC2)c1	0.048	0.936	–
CN1CCN(C(=O)c2cccc(Cn3nnc4c3C(=O)c3ccccc3C4=O)c2)CC1	–	0.64	IC50 [1]: > 10 µM; IC50 [8]: > 10 µM; AC50 [9]: > 50 µM; IC50 (Mu-type opioid receptor): > 10 µM; IC50 [3]: > 10 µM; IC50 (Aurora kinase A): > 10 µM; IC50 [4]: > 10 µM; IC50 [5]: > 10 µM; IC50 [6]: > 10 µM; IC50 (Catalase): > 10 µM
CC(=O)N1CCN(C(=O)c2ccc(Cn3nnc4c3C(=O)c3ccccc3C4=O)cc2)CC1	0.176	1.1	–
O=C1c2ccccc2C(=O)c2c1nnn2Cc1ccc(C(=O)N2CCOCC2)cc1	0.116	0.982	–
CN1CCN(C(=O)c2ccc(Cn3nnc4c3C(=O)c3ccccc3C4=O)cc2)CC1	0.108	2.07	–
COC1CCN(C(=O)c2ccc(Cn3nnc4c3C(=O)c3ccccc3C4=O)cc2)CC1	0.209	1.59	–
CCN(CC)C(=O)Cc1ccc(Cn2nnc3c2C(=O)c2ccccc2C3=O)cc1	0.145	0.922	–
